Test results from patent US11841369B2, “Method for improving quality of therapeutic cell through real-time glutathione measurement” (CELL2IN, INC., priority 2017, dated 2023).

Key:
hES-MSCs [1] = assay: CFU-F of FreSH-Tracer-sorted hES-MSCs; type: cell-based, human
Procedure: Twelve hours after hES-MSCs were seeded in […] tissue culture media at a density of 3×10^6 cells/mL, the cells were washed two times with 30 mL of PBS, and labeled with an EGM-2 MV culture solution containing 2 μM FreSH for 2 hours. After the two hours, the cells were washed with 2 μM FreSH-containing PBS twice and treated with a TrypsinLE (Invitrogen) solution to detach the cells, and then trypsin was inactivated with a fresh EGM-2 MV medium containing 2 μM FreSH. Afterward, the cells were centrifuged at 4° C. and 2000 rpm for 20 minutes, and resuspended in a fresh EGM-2 MV medium containing 2 μM FreSH to have a density of 5×10^7 cells/mL. The suspension was diluted 1/5 with PBS containing 2 μM FreSH immediately before loading for FACS (diluted by approximately 1 mL at a time to maintain a temperature of 4° C.).
Afterward, under the following conditions, FACS Instruction (BD ARIAIII, laser at wavelengths of 405 (for measuring F510) and 488 (for measuring F580), nozzle size: 100 μm, 2,000-3,000 events/sec), FACS analysis was performed by gating the cells corresponding to the upper 3.9-35% and the lower 3.9-35% of total cells according to the F510/F580 ratio. […]
Main factors for determining the therapeutic efficacy of hBM-MSCs, namely a colony forming unit-fibroblast (CFU-F) and a graft survival rate, were evaluated in cell culture models. […]

hES-MSCs [2] = assay: PDGF-AA-induced cell migration of unsorted hES-MSCs; type: cell-based, human; conditions: hES-MSCs not sorted by FreSH-Tracer
Procedure: Main factors for determining the therapeutic efficacy of hBM-MSCs, namely a colony forming unit-fibroblast (CFU-F) and a graft survival rate, were evaluated in cell culture models.
In order to test whether direct control of a GSH level in stem cells leads to changes in cell functions, hES-MSCs sorted by FreSH-Tracer were treated with buthionine sulfoximine (BSO; glutathione synthesis inhibitor) and glutathione ethyl ester (GSH-EE). When GSH was decreased in cells by treating GSH^High cells with BSO (80 μM, 24 h), it was confirmed that CFU-F increased, and on the other hand, when GSH was increased by treating GSH^Low cells with GSH-EE (1 mM, 2 h), it was confirmed that CFU-F decreased (FIG. 13A). In addition, it was confirmed that, when hES-MSCs which were not sorted by FreSH-Tracer were treated with BSO or GSH-EE, PDGF-AA-induced cell migration capacity was decreased or increased, respectively (FIG. 13B).

T cells = assay: Anti-inflammatory effect of treated hUC-MSCs: T cell proliferation, T cell differentiation, Treg cell differentiation; type: cell-based; conditions: for T cell differentiation capacity / T cell proliferation ability / Treg cell differentiation: hUC-MSCs treated with 1 μM ferrostatin-1 24 h, 0.2 mM GGC 2 h or 2 mM GSH-EE 2 h
Procedure: The inventors observed an effect of the material on stem cells by treating each stem cells with a material for enhancing a glutathione evaluation parameter. When hUC-MSCs were subcultured in a L-AA2G-containing medium, CFU-F, migration capacity, and an anti-inflammatory effect were observed. A CFU-F assay (n=3) was performed by treating hUC-MSCs with 125 or 250 μg/mL of AA2G for three days. As shown in FIGS. 16A and 16B, it was confirmed that, when AA2G was treated, CFU-F increased. In addition, as hUC-MSCs were treated with 125 or 250 μg/mL of AA2G for three days, PDGF-AA-induced migration capacity (n=3) was analyzed. As shown in FIGS. 17A and 17B, it was confirmed that the migration capacity was increased by AA2G treatment. In addition, the reduction in T cell proliferation, a reduction in T cell differentiation, and the promotion of Treg cell differentiation were observed by treating hUC-MSCs with 125 or 250 μg/mL of AA2G for three days.
In addition, hUC-MSCs were cultured with ferrostatin-1 (0.2, 1, 2 and 4 μM) and liproxstatin-1 (0.1, 0.5, 1 and 2 μM), which control a glutathione level in cells by inhibiting lipid oxidation. […] Meanwhile, the hUC-MSCs were treated with 1 μM ferrostatin-1 for 24 hours, 0.2 mM GGC for 2 hours, and 2 mM GSH-EE for 2 hours. As a result, the reduction in T cell proliferation ability and the reduction in T cell differentiation capacity were observed, and promotion of Treg cell differentiation was observed.

hUC-MSCs [3] = assay: CFU-F assay of hUC-MSCs; type: cell-based, human
Procedure: (§1) The inventors observed an effect of the material on stem cells by treating each stem cells with a material for enhancing a glutathione evaluation parameter. When hUC-MSCs were subcultured in a L-AA2G-containing medium, CFU-F, migration capacity, and an anti-inflammatory effect were observed. A CFU-F assay (n=3) was performed by treating hUC-MSCs with 125 or 250 μg/mL of AA2G for three days. As shown in FIGS. 16A and 16B, it was confirmed that, when AA2G was treated, CFU-F increased. In addition, as hUC-MSCs were treated with 125 or 250 μg/mL of AA2G for three days, PDGF-AA-induced migration capacity (n=3) was analyzed. As shown in FIGS. 17A and 17B, it was confirmed that the migration capacity was increased by AA2G treatment. In addition, the reduction in T cell proliferation, a reduction in T cell differentiation, and the promotion of Treg cell differentiation were observed by treating hUC-MSCs with 125 or 250 μg/mL of AA2G for three days. […] Meanwhile, hUC-MSCs were cultured with a glutathione precursor such as γ-glutamyl cysteine (GGC, 0.1, 0.25, and 0.5 mM). A CFU-F assay (n=3) was performed by treating hUC-MSCs with each concentration of GGC for 2 hours. […] In addition, SDF1α and PDGF-AA-induced migration capacities (n=3) were analyzed for hUC-MSCs without treatment with GGC, and SDF1α- and PDGF-AA-induced migration abilities (n=3) were analyzed by treating hUC-MSCs with the increasing concentrations of GGC. STI571 was used as a PDGFR kinase inhibitor. As shown in FIGS. 20A to 20C, it was confirmed that, according to an increase in GGC treatment concentration, SDF1α- and PDGF-AA-induced migration capacities were enhanced. A CFU-F assay (n=3) was performed by treating hUC-MSCs with 0.2, 1, 2, and 4 μM ferrostatin-1 and 0.1, 0.5, 1, and 2 μM liproxstatin-1 for 24 hours.

hUC-MSCs [4] = assay: SDF1α- and PDGF-AA-induced migration capacity of hUC-MSCs; type: cell-based, human; conditions: increasing GGC concentration (0.1, 0.25 mM)
Procedure: as §1, with “enhanced.” for “enhanced. A CFU-F assay (n=3) was performed by treating hUC-MSCs with 0.2, 1, 2, and 4 μM ferrostatin-1 and 0.1, 0.5, 1, and 2 μM liproxstatin-1 for 24 hours.”

hUC-MSCs [5] = assay: Oxidative stress resistance capacity (ORC) analysis with RSL3; type: cell-based, human; conditions: hUC-MSCs, 0, 2.5, 5 or 10 μM liproxstatin-1 with 0, 0.5 or 1 μM RSL3; concentration-dependent
Procedure: In addition, GH is calculated as the coefficient of variation or robust coefficient of variation of cellular FR. GRC refers to a value obtained by real-time monitoring of FR after living cells are treated with an oxidizing agent, as calculated by dividing a value obtained by subtracting AUC of a group treated with 0.1-100 mM N-ethylmaleimide (NEM) from FR AUC of an oxidizing agent (diamide, H2O2, etc.)-treated group by a value obtained by subtracting the AUC of NEM-treated group from AUC of the untreated control, and multiplying the resulting value by 100. The FR of the NEM-treated group is a value for increasing the sensitivity of a GRC value by treating it as the blank value of the FR of the cells of interest. […] To remove the MitoFreSH-Tracer from the medium before measurement, the medium was exchanged with fresh 10 mM HEPES-containing HBSS, and a fluorescence image was obtained using a confocal imaging system, Operetta. By comparing GSH levels quantified from control cells not treated with RSL3 or control cells before treated with RSL3, the distribution of GSH expression-changed cells was calculated. Based on the point where the distribution histogram is divided into two peaks, the cells were divided into GSH^High cells (right peak) and GSH^Low cells (left peak), and then a ratio of corresponding cells was expressed as a percentage (%). […]

CCCCS(=N)(=O)CCC(N)C(=O)O (centres unmarked) [BSO, buthionine sulfoximine]
CFU-F (hES-MSCs [1]; GSH^High hES-MSCs, BSO 80 μM, 24 h): increased | PDGF-AA-induced cell migration capacity (hES-MSCs [2]): decreased

N[C@@H](CCC(=O)N[C@@H](CS)C(=O)O)C(=O)O [GGC, γ-glutamyl cysteine]
T cell differentiation capacity (T cells): reduction | T cell proliferation ability (T cells): reduction | Treg cell differentiation (T cells): promotion | anti-inflammatory effect (T cells; hUC-MSCs with GGC treatment (FIGS. 27, 28A to 28C)): no change | CFU-F (hUC-MSCs [3]; GGC 0.1, 0.25 and 0.5 mM, 2 hours): increased | PDGF-AA-induced migration capacity (hUC-MSCs [4]): enhanced | SDF1α-induced migration capacity (hUC-MSCs [4]): enhanced

CCOC(=O)CNC(=O)[C@H](CS)NC(=O)CC[C@H](N)C(=O)O [GSH-EE, glutathione ethyl ester]
T cell differentiation capacity (T cells): reduction | T cell proliferation ability (T cells): reduction | Treg cell differentiation (T cells): promotion | CFU-F (hES-MSCs [1]; GSH^Low hES-MSCs, GSH-EE 1 mM, 2 h): decreased | PDGF-AA-induced cell migration capacity (hES-MSCs [2]): increased

Clc1cccc(CN=C2Nc3ccccc3NC23CCNCC3)c1 [liproxstatin-1]
ratio of the GSH^High cells (ORC) (hUC-MSCs [5]): increased | anti-inflammatory effect of the hUC-MSCs (T cells; ferrostatin-1 or liproxstatin-1 treatment (FIGS. 27, 28A to 28C)): did not alter | CFU-F (hUC-MSCs [3]; ferrostatin-1 0.2, 1, 2, 4 μM or liproxstatin-1 0.1, 0.5, 1, 2 μM, 24 hours): improved
